Read-outs that look alike come from different tables or passages of the source.
Columns and labels:
HCV genotype 1b replicon = assay: HCV replicon assay, genotype 1b replicon EC50; assay type: cell-based, Hepatitis C virus; details: Hepatitis C virus, read-out: EC50 [gt-1b]
Outline: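 Stable neomycin phosphotransferase-encoding replicon cell lines, kept under G418 selection beforehand, were plated with a compound dilution series without G418 and incubated 24-48 hours. Replicon RNA was then quantified, or luciferase activity read. EC50 was calculated as percent of DMSO control by four-parameter fit.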

[1] = target: HCV NS3/4A protease genotype 1b (Hepatitis C virus genotype 1b, UniProt P26663); assay: HCV NS3/4A protease time-resolved fluorescence (TRF) assay, Ki against genotype 1b; assay type: biochemical
Outline: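 Enzyme was pre-incubated 30 min with inhibitor in HEPES pH 7.5 buffer (150 mM NaCl, 15% glycerol, 10 mM DTT). Reaction ran 2.5 h at room temperature with 25 nM europium TRF peptide substrate, read at ex 340/em 615 nm. Enzyme levels: 0.2 nM (1b), 0.4 nM (A156T), 0.025 nM (3a). Ki came from four-parameter IC50 via IC50=Ki(1+[S]/KM).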

[2] = IC50 [gt-1b], NS3/4A protease TRF assay, genotype 1b enzyme 0.2 nM
[3] = IC50 [gt-1b] (nM), NS3/4A genotype 1b, enzyme 0.2 nM
[4] = IC50 [gt-1b] (nM), NS3/4A genotype 1b, enzyme 0.2 nM, K+ salt

SMILES	EC50 (HCV genotype 1b replicon; HCV replicon, genotype 1b) [nM]	IC50 [1, 2] [nM]	EC50 (HCV genotype 1b replicon; genotype 1b replicon) [nM]	IC50 [1, 3] [nM]	also measured
CC[C@H](C)OC(=O)N[C@H]1CCCCC/C=C\[C@@H]2C[C@@]2(C(=O)NS(=O)(=O)C2(C)CC2)NC(=O)[C@@H]2C[C@]3(CCc4c(c(C(F)F)nc5ccc(OC)nc45)O3)CN2C1=O [Example 525, (2S)-butan-2-yl [(2R,6S,12Z,13aS,14aR,16aS)-6′-(difluoromethyl)-2′-methoxy-14a-{[(1-methylcyclopropyl)sulfonyl]carbamoyl}-5,16-dioxo-1,5,6,7,8,9,9′,10,10′,11,13a,14,14a,15,16,16a-hexadecahydrospiro[cyclopropa[e]pyrrolo[1,2-a][1,4]diazacyclopentadecine-2,8′-pyrano[2,3-c][1,5]naphthyridin]-6-yl]carbamate]	1.16	0.004			
COCCCOc1ccc2nc(C)c3c(c2c1)CC[C@]1(C[C@H]2C(=O)N[C@]4(C(=O)NS(=O)(=O)C5(C)CC5)C[C@H]4/C=C\CCCCC[C@H](NC(=O)OCC(C)(C)C)C(=O)N2C1)O3 [Example 453, 2,2-dimethylpropyl [(2R,6S,12Z,13aS,14aR,16aS)-9′-(3-methoxypropoxy)-5′-methyl-14a-{[(1-methylcyclopropyl)sulfonyl]carbamoyl}-5,16-dioxo-1,1′,2′,5,6,7,8,9,10,11,13a,14,14a,15,16,16a-hexadecahydrospiro[cyclopropa[e]pyrrolo[1,2-a][1,4]diazacyclopentadecine-2,3′-pyrano[2,3-c]quinolin]-6-yl]carbamate]	1.78	0.017			
Cc1nc2ccccc2c2c1O[C@]1(CC2)C[C@H]2C(=O)N[C@]3(C(=O)NS(=O)(=O)C4(C)CC4)C[C@H]3/C=C\CCCCC[C@H](NC(=O)OC(C)C3CC3)C(=O)N2C1 (stereo partly drawn) [Example 126, 1-cyclopropylethyl [(2R,6S,12Z,13aS,14aR,16aS)-5′-methyl-14a-{[(1-methylcyclopropyl)sulfonyl]carbamoyl}-5,16-dioxo-1,1′,2′,5,6,7,8,9,10,11,13a,14,14a,15,16,16a-hexadecahydrospiro[cyclopropa[e]pyrrolo[1,2-a][1,4]diazacyclopentadecine-2,3′-pyrano[2,3-c]quinolin]-6-yl]carbamate]			2.61	0.029	
Cc1nc2ccc(F)cc2c2c1O[C@]1(CC2)C[C@H]2C(=O)N[C@]3(C(=O)NS(=O)(=O)C4(C)CC4)C[C@H]3/C=C\CCCCC[C@H](NC(=O)OCC(C)(C)C)C(=O)N2C1 [Example 406, 2,2-dimethylpropyl [(2R,6S,12Z,13aS,14aR,16aS)-9′-fluoro-5′-methyl-14a-{[(1-methylcyclopropyl)sulfonyl]carbamoyl}-5,16-dioxo-1,1′,2′,5,6,7,8,9,10,11,13a,14,14a,15,16,16a-hexadecahydrospiro[cyclopropa[e]pyrrolo[1,2-a][1,4]diazacyclopentadecine-2,3′-pyrano[2,3-c]quinolin]-6-yl]carbamate]	1	0.013			
COc1ccc2nc(C3CC3)c3c(c2c1)CC[C@]1(C[C@H]2C(=O)N[C@]4(C(=O)NS(=O)(=O)C5(C)CC5)C[C@H]4/C=C\CCCCC[C@H](NC(=O)OC4CCCC4)C(=O)N2C1)O3 [Example 91, cyclopentyl [(2R,6S,12Z,13aS,14aR,16aS)-5′-cyclopropyl-9′-methoxy-14a-{[(1-methylcyclopropyl)sulfonyl]carbamoyl}-5,16-dioxo-1,1′,2′,5,6,7,8,9,10,11,13a,14,14a,15,16,16a-hexadecahydrospiro[cyclopropa[e]pyrrolo[1,2-a][1,4]diazacyclopentadecine-2,3′-pyrano[2,3-c]quinolin]-6-yl]carbamate]			0.46	0.009	
CC(C)(C)OC(=O)N[C@H]1CCCCC/C=C\[C@@H]2C[C@@]2(C(=O)NS(=O)(=O)C2(C)CC2)NC(=O)[C@@H]2C[C@]3(CCc4c(c(C(F)(F)F)nc5ccc(Cl)cc45)O3)CN2C1=O [Example 378, tert-butyl [(2R,6S,12Z,13aS,14aR,16aS)-9′-chloro-14a-{[(1-methylcyclopropyl)sulfonyl]carbamoyl}-5,16-dioxo-5′-(trifluoromethyl)-1,1′,2′,5,6,7,8,9,10,11,13a,14,14a,15,16,16a-hexadecahydrospiro[cyclopropa[e]pyrrolo[1,2-a][1,4]diazacyclopentadecine-2,3′-pyrano[2,3-c]quinolin]-6-yl]carbamate]	3.59	0.02			
Cc1cccc(N[C@H]2CCCCC/C=C\[C@@H]3C[C@@]3(C(=O)NS(=O)(=O)C3(C)CC3)NC(=O)[C@@H]3C[C@]4(CCc5c(c(C)nc6ccccc56)O4)CN3C2=O)n1 [Example 343, (2R,6S,12Z,13aS,14aR,16aS)-5′-methyl-N-[(1-methylcyclopropyl)sulfonyl]-6-[(6-methylpyridin-2-yl)amino]-5,16-dioxo-1,1′,2′,6,7,8,9,10,11,13a,14,15,16,16a-tetradecahydrospiro[cyclopropa[e]pyrrolo[1,2-a][1,4]diazacyclopentadecine-2,3′-pyrano[2,3-c]quinoline]-14a(5H)-carboxamide]			5.86	0.05	
COCCCOc1ccc2nc(C(F)(F)F)c3c(c2c1)CC[C@]1(C[C@H]2C(=O)N[C@]4(C(=O)NS(=O)(=O)C5(C)CC5)C[C@H]4/C=C\CCCCC[C@H](NC(=O)OC(C)(C)C)C(=O)N2C1)O3 [Example 51, tert-Butyl ((2R,6S,13aS,14aR,16aS,Z)-9′-(3-methoxypropoxy)-14a-(((1-methylcyclopropyl)sulfonyl)carbamoyl)-5,16-dioxo-5′-(trifluoromethyl)-1′,2′,3,5,6,7,8,9,10,11,13a, 14,14a,15,16,16a-hexadecahydro-1H-spiro[cyclopropa[e]pyrrolo[1,2-a][1,4]diazacyclopentadecine-2,3′-pyrano[2,3-c]quinolin]-6-yl)carbamate]					EC50 (HCV genotype 1b replicon; genotype 1b replicon, K+ salt): 0.246 nM; IC50 [1, 4]: 0.011 nM
Cc1ccnc(N[C@H]2CCCCC/C=C\[C@@H]3C[C@@]3(C(=O)NS(=O)(=O)C3(C)CC3)NC(=O)[C@@H]3C[C@]4(CCc5c(c(C)nc6ccccc56)O4)CN3C2=O)c1 [Example 350, (2R,6S,12Z,13aS,14aR,16aS)-5′-methyl-N-[(1-methylcyclopropyl)sulfonyl]-6-[(4-methylpyridin-2-yl)amino]-5,16-dioxo-1,1′,2′,6,7,8,9,10,11,13a,14,15,16,16a-tetradecahydrospiro[cyclopropa[e]pyrrolo[1,2-a][1,4]diazacyclopentadecine-2,3′-pyrano[2,3-c]quinoline]-14a(5H)-carboxamide]			2.84	0.035	
COc1ccc2nc(C(C)C)c3c(c2c1)C(F)(F)C[C@]1(C[C@H]2C(=O)N[C@]4(C(=O)NS(=O)(=O)C5(C)CC5)C[C@H]4/C=C\CCCCC[C@H](NC(=O)OC(C)(C)CCS(C)(=O)=O)C(=O)N2C1)O3 [Example 245, 2-methyl-4-(methylsulfonyl)butan-2-yl [(2S,6S,12Z,13aS,14aR,16aS)-1′,1′-difluoro-9′-methoxy-14a-{[(1-methylcyclopropyl)sulfonyl]carbamoyl}-5,16-dioxo-5′-(propan-2-yl)-1,1′,2′,5,6,7,8,9,10,11,13a,14,14a,15,16,16a-hexadecahydrospiro[cyclopropa[e]pyrrolo[1,2-a][1,4]diazacyclopentadecine-2,3′-pyrano[2,3-c]quinolin]-6-yl]carbamate]					EC50 (HCV genotype 1b replicon; genotype 1b replicon, K+ salt): 13.4 nM; IC50 [1, 4]: 0.025 nM
Cc1nc2ccccc2c2c1O[C@]1(CC2)C[C@H]2C(=O)N[C@]3(C(=O)NS(=O)(=O)C4(C)CC4)C[C@H]3/C=C\CCCCC[C@H](Nc3nc4ccccc4o3)C(=O)N2C1 [Example 379, (2R,6S,12Z,13aS,14aR,16aS)-6-(1,3-benzoxazol-2-ylamino)-5′-methyl-N-[(1-methylcyclopropyl)sulfonyl]-5,16-dioxo-1,1′,2′,6,7,8,9,10,11,13a,14,15,16,16a-tetradecahydrospiro[cyclopropa[e]pyrrolo[1,2-a][1,4]diazacyclopentadecine-2,3′-pyrano[2,3-c]quinoline]-14a(5H)-carboxamide]	1.36	0.104			
COc1ccc2nc(C)c3c(c2c1)[C@H](F)C[C@]1(C[C@H]2C(=O)N[C@]4(C(=O)NS(=O)(=O)C5(C)CC5)C[C@H]4/C=C\CCCCC[C@H](NC(=O)O[C@@H](C)C(C)C)C(=O)N2C1)O3 [Example 358, (2S)-3-methylbutan-2-yl [(1′R,2S,6S,12Z,13aS,14aR,16aS)-1′-fluoro-9′-methoxy-5′-methyl-14a-{[(1-methylcyclopropyl)sulfonyl]carbamoyl}-5,16-dioxo-1,1′,2′,5,6,7,8,9,10,11,13a,14,14a,15,16,16a-hexadecahydrospiro[cyclopropa[e]pyrrolo[1,2-a][1,4]diazacyclopentadecine-2,3′-pyrano[2,3-c]quinolin]-6-yl]carbamate]					EC50 (HCV genotype 1b replicon; HCV replicon, genotype 1b, K+ salt): 42.8 nM; IC50 ([1]; IC50 [gt-1b], NS3/4A protease TRF assay, genotype 1b enzyme 0.2 nM, K+ salt): 0.172 nM
Cc1nc2ccc(OC(F)(F)F)cc2c2c1O[C@]1(CC2)C[C@H]2C(=O)N[C@]3(C(=O)NS(=O)(=O)C4(C)CC4)C[C@H]3/C=C\CCCCC[C@H](NC(=O)OC3CCCC3)C(=O)N2C1 [Example 125, cyclopentyl [(2R,6S,12Z,13aS,14aR,16a5)-5′-methyl-14a-{[(1-methylcyclopropyl)sulfonyl]carbamoyl}-5,16-dioxo-9′-(trifluoromethoxy)-1,1′,2′,5,6,7,8,9,10,11,13a,14,14a,15,16,16a-hexadecahydrospiro[cyclopropa[e]pyrrolo[1,2-a][1,4]diazacyclopentadecine-2,3′-pyrano[2,3-c]quinolin]-6-yl]carbamate]			3.71	0.016	

Source: patent publication US8987195B2 (priority 2012, dated 2015)
